The values that follow come from article PMC5569033 (2017).

The test system of experiment [1] is Spinach2-Streptavidin aptamer (Streptavidin (SA)) (RNA, aptamer) GAUGUAACUGAAUGAAAUGGUGAAGGACGGGUCCACGACCGACCAGAAUCAUGCAAGUGCGUAAGAUAGUCGCGGGCCGGGGUUGUUGAGUAGAGUGUGAGCUCCGUAACUAGUUACAUC
Kind of experiment: dye fluorescence, plate reader. The following applies: 200 mM KCl, 10 mM NaCl, 1 mM MgCl2; 100 mM Tris pH 7.5, 25 °C, 14 h; 10 μM RNA, 2 μM dye; with streptavidin.

Experiment [2] has as its system Tyr1M1 (RNA, aptamer) GGAUGUAACUGAAUGAAAUGGUGAAGGACGGGUCCAGCCCUUGGCAGUCAACUCGUGCGAUCGUGAAAACGGGGCAAGAUGGCCUUACAGCGGUCAAUACGGGGGUCAUCAGAUAGGGAGGCCAGGAUAUGUUGAGUAGAGUGUGAGCUCCGUAACUAGUUACAUC
Kind of experiment: dye fluorescence in droplets. Conditions: 200 mM KCl, 10 mM NaCl, 10 mM MgCl2; 100 mM Tris pH 7.5; 30 μM RNA, 3 μM dye; salmon sperm DNA; with secreted tyrosine.

Experiment [3] shares this test system. Kind of experiment: Spinach sensor fluorescence turn-on. The following applies: 125 mM KCl, 5 mM MgCl2; 50 mM Tris-HCl pH 7.5; 2 μM DFHBI or DFHBI-1T; 1 mM ligand; 10 μM RNA.

Each structure is given as a SMILES string.

Take `CC1=N/C(=C\c2cc(F)c(O)c(F)c2)C(=O)N1CC(F)(F)F`: the binding result in experiment [1] and in experiment [2] was “yes” throughout.
As to `N[C@@H](Cc1ccc(O)cc1)C(=O)O`, in experiment [3], the binding result is reported as “yes”.
